Assay results taken from patent publication US7067519B2 (priority 2002, dated 2006).

Experiments:
human orexin-1 receptor = biological target: T1, human orexin-1 receptor (Homo sapiens, UniProt O43613); experiment: Intracellular calcium measurement (FLIPR), OX1 receptor antagonistic activity; type: cell-based; details: CHO cells expressing human orexin-1 receptor, agonist 10 nM human orexin-A, fluo-3 calcium
T1 construct: expressed in transfected cells; host or cells: CHO cells (G418 selection)
T1 sequence (O43613 1-425): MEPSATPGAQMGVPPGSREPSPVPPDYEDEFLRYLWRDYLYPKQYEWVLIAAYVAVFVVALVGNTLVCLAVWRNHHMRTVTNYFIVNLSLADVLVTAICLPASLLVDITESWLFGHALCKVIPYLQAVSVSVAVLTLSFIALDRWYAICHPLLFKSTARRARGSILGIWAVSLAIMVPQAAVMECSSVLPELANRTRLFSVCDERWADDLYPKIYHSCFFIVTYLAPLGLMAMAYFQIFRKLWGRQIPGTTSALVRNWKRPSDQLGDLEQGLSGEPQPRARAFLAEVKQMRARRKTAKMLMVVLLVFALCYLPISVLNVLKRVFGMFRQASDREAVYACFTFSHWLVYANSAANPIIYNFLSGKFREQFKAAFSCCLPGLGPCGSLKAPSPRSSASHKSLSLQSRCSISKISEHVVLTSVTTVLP
Method: (§1) Determination of OX1 and OX2 Receptor Antagonistic Activities
(§2) The OX1 and OX2 receptor antagonistic activity of the compounds of formula (I) was determined in accordance with the following experimental method.
(§3) Intracellular Calcium Measurements
(§4) Chinese hamster ovary (CHO) cells expressing the human orexin-1 receptor or the human orexin-2 receptor, were grown in culture medium (Ham F-12 with L-Glutamine) containing 300 μg/ml G418, 100 U/ml penicillin, 100 μg/ml streptomycin and 10% inactivated foetal calf serum (FCS).
(§5) The cells were seeded at 80'000 cells/well into 96-well black clear bottom sterile plates (Costar) which had been precoated with 1% gelatine in Hanks' Balanced Salt Solution (HBSS). All reagents were from Gibco BRL.
(§6) The seeded plates were incubated overnight at 37° C. in 5% CO2.
(§7) Human orexin-A as an agonist was prepared as 1 mM stock solution in methanol:water (1:1), diluted in HBSS containing 0.1% bovine serum albumin (BSA) and 2 mM HEPES for use in the assay at a final concentration of 10 nM.
(§8) Antagonists were prepared as 10 mM stock solution in DMSO, then diluted in 96-well plates, first in DMSO, then in HBSS containing 0.1% bovine serum albumin (BSA) and 2 mM HEPES.
(§9) On the day of the assay, 100 μl of loading medium (HBSS containing 1% FCS, 2 mM HEPES, 5 mM probenecid (Sigma) and 3 μM of the fluorescent calcium indicator fluo-3 AM (1 mM stock solution in DMSO with 10% pluronic acid) (Molecular Probes) was added to each well.
(§10) The 96-well plates were incubated for 60 min at 37° C. in 5% CO2. The loading solution was then aspirated and cells were washed 3 times with 200 μl HBSS containing 2.5 mM probenecid, 0.1% BSA, 2 mM HEPES. 100 μl of that same buffer was left in each well. Within the Fluorescent Imaging Plate Reader (FLIPR, Molecular Devices), antagonists were added to the plate in a volume of 50 μl, incubated for 20 min and finally 100 μl of
(§11) agonist was added. Fluorescence was measured for each well at 1 second intervals, and the height of each fluorescence peak was compared to the height of the fluorescence peak induced by 10 nM orexin-A with buffer in place of antagonist. For each antagonist, IC50 value (the concentration of compound needed to inhibit 50% of the agonistic response) was determined.

human orexin-2 receptor = biological target: T2, human orexin-2 receptor (Homo sapiens, UniProt O43614); experiment: Intracellular calcium measurement (FLIPR), OX2 receptor antagonistic activity; type: cell-based; details: CHO cells expressing human orexin-2 receptor, agonist 10 nM human orexin-A, fluo-3 calcium
T2 construct: expressed in transfected cells; host or cells: CHO cells (G418 selection)
T2 sequence (O43614 1-444): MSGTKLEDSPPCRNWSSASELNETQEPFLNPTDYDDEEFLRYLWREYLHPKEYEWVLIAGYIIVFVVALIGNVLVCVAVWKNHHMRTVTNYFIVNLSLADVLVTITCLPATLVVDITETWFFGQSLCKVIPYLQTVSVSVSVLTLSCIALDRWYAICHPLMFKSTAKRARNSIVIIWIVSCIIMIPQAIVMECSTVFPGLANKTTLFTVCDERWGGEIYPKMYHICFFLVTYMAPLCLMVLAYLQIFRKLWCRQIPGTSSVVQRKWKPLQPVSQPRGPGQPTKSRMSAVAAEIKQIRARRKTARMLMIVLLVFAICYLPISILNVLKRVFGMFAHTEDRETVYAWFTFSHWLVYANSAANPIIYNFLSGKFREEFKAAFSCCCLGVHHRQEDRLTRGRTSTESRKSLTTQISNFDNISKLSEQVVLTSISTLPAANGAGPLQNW
Method: as §1, §2, §3, §4, §5, §6, §7, §8, §9, §10, §11

Structure (SMILES)	IC50 (human orexin-1 receptor)	IC50 (human orexin-2 receptor)
CCOc1ccccc1NC(=O)N(C(C)c1ccccc1)C1CCn2c1nc1ccccc1c2=O (stereo not shown) [Example 3, 3-(2-Ethoxy-phenyl)-1-(9-oxo-1,2,3,9-tetrahydro-pyrrolo[2,1-b]quinazolin-3-yl)-1-(1-phenyl-ethyl)-urea]	115 nM	79 nM
CC(c1ccccc1)N(C(=O)Nc1ccccc1OC(F)(F)F)C1CCn2c1nc1cc(F)ccc1c2=O (stereo not shown) [Example 7, 1-(6-Fluoro-9-oxo-1,2,3,9-tetrahydro-pyrrolo[2,1-b]quinazolin-3-yl)-1-(1-phenyl-ethyl)-3-(2-trifluoromethoxy-phenyl)-urea]	2400 nM	27 nM
CCCc1ccccc1NC(=O)N(C(C)c1ccccc1)C1CCCn2c1nc1cc(F)c(F)cc1c2=O (stereo not shown) [Example 28, 1-(2,3-Difluoro-11-oxo-6,8,9,11-tetrahydro-7H-pyrido[2,1-b]quinazolin-6-yl)-1-(1-phenyl-ethyl)-3-(2-n-propyl-phenyl)-urea]	153 nM	17 nM
CCc1ccccc1NC(=O)N(C(C)c1ccccc1)C1CCCn2c1nc1cc(F)c(F)cc1c2=O (stereo not shown) [Example 30, 1-(2,3-Difluoro-11-oxo-6,8,9,11-tetrahydro-7H-pyrido[2,1-b]quinazolin-6-yl)-3-(2-ethyl-phenyl)-1-(1-phenyl-ethyl)-urea]	261 nM	16 nM
CCCc1ccccc1NC(=O)N(C(C)c1ccccc1)C1CCCn2c1nc1cc(F)ccc1c2=O (stereo not shown) [Example 33, 1-(3-Fluoro-11-oxo-6,8,9,11-tetrahydro-7H-pyrido[2,1-b]quinazolin-6-yl)-1-(1-phenyl-ethyl)-3-(2-n-propyl-phenyl)-urea]	127 nM	18 nM
CC(c1ccccc1)N(C(=O)Nc1ccccc1OC(F)(F)F)C1CCn2c1nc1cccc(Cl)c1c2=O (stereo not shown) [Example 40]	37 nM	14 nM
CC(c1ccccc1)N(C(=O)Nc1ccccc1-c1ccccc1)C1CCn2c1nc1cccc(Cl)c1c2=O (stereo not shown) [Example 41, 3-Biphenyl-2-yl-1-(8-chloro-9-oxo-1,2,3,9-tetrahydro-pyrrolo[2,1-b]quinazolin-3-yl)-1-(1-phenyl-ethyl)-urea]	52 nM	14 nM
CCCc1ccccc1NC(=O)N(C(C)c1ccccc1)C1CCn2c1nc1cccc(Cl)c1c2=O (stereo not shown) [Example 44, 1-(8-Chloro-9-oxo-1,2,3,9-tetrahydro-pyrrolo[2,1-b]quinazolin-3-yl)-1-(1-phenyl-ethyl)-3-(2-n-propyl-phenyl)-urea]	67 nM	27 nM
C[C@@H](c1ccccc1)N(C(=O)Nc1ccccc1OC(F)(F)F)C1CCn2c1nc1cccc(C(F)(F)F)c1c2=O (stereo partly drawn) [Example 49, 1-(9-Oxo-8-trifluoromethyl-1,2,3,9-tetrahydro-pyrrolo[2,1-b]quinazolin-3-yl)-1-((S)-1-phenyl-ethyl)-3-(2-trifluoromethoxy-phenyl)-urea]	12 nM	16 nM
CCCc1ccccc1NC(=O)N(C1CCn2c1nc1cccc(C(F)(F)F)c1c2=O)[C@@H](C)c1ccccc1 (stereo partly drawn) [Example 50, 1-(9-Oxo-8-trifluoromethyl-1,2,3,9-tetrahydro-pyrrolo[2,1-b]quinazolin-3-yl)-1-((S)-1-phenyl-ethyl)-3-(2-n-propyl-phenyl)-urea]	14 nM	18 nM
CCc1ccccc1NC(=O)N(C1CCn2c1nc1cccc(C(F)(F)F)c1c2=O)[C@@H](C)c1ccccc1 (stereo partly drawn) [Example 51, 3-(2-Ethyl-phenyl)-1-(9-oxo-8-trifluoromethyl-1,2,3,9-tetrahydro-pyrrolo[2,1-b]quinazolin-3-yl)-1-((S)-1-phenyl-ethyl)-urea]	28 nM	21 nM
